Measurements from the supplement of paper PMC6045584.
± gives the standard deviation of the averaged measurements.

Experiments:
[1] = compound: CC(=O)NCC(=O)N1[C@@H]2CC[C@H]1c1ccc(Nc3ncc(C(F)(F)F)c(NC4CCC4)n3)cc12; experiment: surviving fraction relative to DMSO-only wells; higher = less growth inhibition; conditions: exposure time: 5 days
How it was run: (§1)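 Viability values are CellTiter-Glo luminescence readings, given as surviving fraction against the median of DMSO-only wells. The readings were taken after 10 minutes at room temperature, following five days of continuous exposure to inhibitors at 0.5, 1, 5, 10, 50, 100, 500 and 1000 nM that began 24 hours after log-phase tumour cell lines were seeded at 250–500 cells per well in 384-well plates. Every line was screened three times and kept only if replicate Pearson r >0.7 and median Z' >0.3.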

[2] = compound: T1, CC(=O)O[C@H]1C(=O)[C@@]2(C)[C@H]([C@H](OC(=O)c3ccccc3)[C@]3(O)C[C@H](OC(=O)[C@H](O)[C@@H](NC(=O)c4ccccc4)c4ccccc4)C(C)=C1C3(C)C)[C@]1(OC(C)=O)CO[C@@H]1C[C@@H]2O [PACLITAXEL]; experiment: as above; conditions: exposure time: 5 days
How it was run: as §1

[3] = compound: CC(=O)c1c(C)c2cnc(Nc3ccc(N4CCNCC4)cn3)nc2n(C2CCCC2)c1=O; experiment: as above; conditions: exposure time: 5 days
How it was run: as §1

[4] = compound: T2, CC[C@@]1(O)C(=O)OCc2c1cc1n(c2=O)Cc2cc3ccccc3nc2-1 [CAMPTOTHECIN]; experiment: as above; conditions: exposure time: 5 days
How it was run: as §1

[5] = compound: T3, COCC[n+]1c2c(n(Cc3cnccn3)c1C)C(=O)c1ccccc1C2=O [YM155]; experiment: as above; conditions: exposure time: 5 days
How it was run: as §1

[6] = compound: COc1cc2ncnc(Nc3ccc(F)c(Cl)c3)c2cc1OCCCN1CCOCC1 [GEFITINIB]; experiment: as above; conditions: exposure time: 5 days
How it was run: as §1

[7] = compound: T4, C[C@]1(O)C[C@@H](c2nc(-c3ccc4ccc(-c5ccccc5)nc4c3)c3c(N)nccn32)C1 [OSI-906]; experiment: as above; conditions: exposure time: 5 days
How it was run: as §1

[8] = compound: T5, Cc1ccc(-c2cc(C(F)(F)F)nn2-c2ccc(S(N)(=O)=O)cc2)cc1 [CELECOXIB]; experiment: as above; conditions: exposure time: 5 days
How it was run: as §1

[9] = compound: T6, O=C(O)C1(C(=O)O)CCC1.[NH2-].[NH2-].[Pt+2] [CARBOPLATIN]; experiment: as above; conditions: exposure time: 5 days
How it was run: as §1

[10] = compound: CC(=O)NCC(=O)N1[C@@H]2CC[C@H]1c1ccc(Nc3ncc(C(F)(F)F)c(NC4CCC4)n3)cc12; experiment: area under dose-response curve of surviving fraction (unscaled, Aref=0) (surviving fraction x log10(nM)); higher = more resistant; conditions: exposure time: 5 days; dose range 0.5-1000 nM
How it was run: (§2)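 Tumour cell lines in 384-well plates were exposed for five days to eight inhibitor concentrations from 0.5 to 1000 nM. Viability was read by CellTiter-Glo luminescence, normalised to DMSO-only wells, in three screens per line. Dose-response survival curves were fitted to surviving fractions by 3-parameter logistic regression in the drc R package. Area under the curve is the unscaled activity area (Aref = 0) over log10 dose.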

[11] = compound: T1, PACLITAXEL; experiment: as above; conditions: exposure time: 5 days; dose range 0.5-1000 nM
How it was run: as §2

[12] = compound: CC(=O)c1c(C)c2cnc(Nc3ccc(N4CCNCC4)cn3)nc2n(C2CCCC2)c1=O; experiment: as above; conditions: exposure time: 5 days; dose range 0.5-1000 nM
How it was run: as §2

[13] = compound: T2, CAMPTOTHECIN; experiment: as above; conditions: exposure time: 5 days; dose range 0.5-1000 nM
How it was run: as §2

[14] = compound: T3, YM155; experiment: as above; conditions: exposure time: 5 days; dose range 0.5-1000 nM
How it was run: as §2

[15] = compound: T4, OSI-906; experiment: as above; conditions: exposure time: 5 days; dose range 0.5-1000 nM
How it was run: as §2

[16] = compound: T5, CELECOXIB; experiment: as above; conditions: exposure time: 5 days; dose range 0.5-1000 nM
How it was run: as §2

[17] = compound: T6, CARBOPLATIN; experiment: as above; conditions: exposure time: 5 days; dose range 0.5-1000 nM
How it was run: as §2

Q: For HCC70 BREAST, which surviving fraction ([1]; 0.5 nM) is on record?
A: 0.976 ± 0.052

Q: What about the surviving fraction ([1]; 1 nM) of the same test system?
A: 1.03 ± 0.057

Q: What about the surviving fraction ([1]; 5 nM) of the same test system?
A: 0.982 ± 0.099

Q: What about the surviving fraction ([1]; 10 nM) of the same test system?
A: 1.01 ± 0.033

Q: What about the surviving fraction ([1]; 50 nM) of the same test system?
A: 0.864 ± 0.051

Q: And the surviving fraction ([1]; 100 nM)?
A: 0.488 ± 0.026

Q: What about the surviving fraction ([1]; 500 nM) of the same test system?
A: 0.243 ± 0.052

Q: And the surviving fraction ([1]; 1000 nM)?
A: 0.203 ± 0.036

Q: And the surviving fraction ([2]; 0.5 nM)?
A: 0.937 ± 0.071

Q: What about the surviving fraction ([2]; 1 nM) of the same test system?
A: 0.81 ± 0.07

Q: And the surviving fraction ([2]; 5 nM)?
A: 0.218 ± 0.029

Q: What about the surviving fraction ([2]; 10 nM) of the same test system?
A: 0.102 ± 0.019

Q: What about the surviving fraction ([2]; 50 nM) of the same test system?
A: 0.099 ± 0.032

Q: And the surviving fraction ([2]; 100 nM)?
A: 0.0517 ± 0.014

Q: What about the surviving fraction ([2]; 500 nM) of the same test system?
A: 0.0543 ± 0.015

Q: What about the surviving fraction ([2]; 1000 nM) of the same test system?
A: 0.0647 ± 0.031

Q: And the surviving fraction ([3]; 0.5 nM)?
A: 1.02 ± 0.051

Q: And the surviving fraction ([3]; 1 nM)?
A: 0.999 ± 0.056

Q: And the surviving fraction ([3]; 5 nM)?
A: 1.13 ± 0.032

Q: What about the surviving fraction ([3]; 10 nM) of the same test system?
A: 1.05 ± 0.034

Q: What about the surviving fraction ([3]; 50 nM) of the same test system?
A: 1.155 ± 0.0084

Q: What about the surviving fraction ([3]; 100 nM) of the same test system?
A: 1.08 ± 0.08

Q: What about the surviving fraction ([3]; 500 nM) of the same test system?
A: 0.983 ± 0.066

Q: And the surviving fraction ([3]; 1000 nM)?
A: 1.1 ± 0.055

Q: What about the surviving fraction ([4]; 0.5 nM) of the same test system?
A: 0.905 ± 0.12

Q: And the surviving fraction ([4]; 1 nM)?
A: 1.04 ± 0.029

Q: What about the surviving fraction ([4]; 5 nM) of the same test system?
A: 0.958 ± 0.092

Q: And the surviving fraction ([4]; 10 nM)?
A: 0.63 ± 0.044

Q: And the surviving fraction ([4]; 50 nM)?
A: 0.443 ± 0.045

Q: And the surviving fraction ([4]; 100 nM)?
A: 0.385 ± 0.015

Q: What about the surviving fraction ([4]; 500 nM) of the same test system?
A: 0.119 ± 0.061

Q: And the surviving fraction ([4]; 1000 nM)?
A: 0.0573 ± 0.0076

Q: What about the surviving fraction ([5]; 0.5 nM) of the same test system?
A: 1.09 ± 0.1

Q: What about the surviving fraction ([5]; 1 nM) of the same test system?
A: 1.04 ± 0.11

Q: And the surviving fraction ([5]; 5 nM)?
A: 1.01 ± 0.11

Q: What about the surviving fraction ([5]; 10 nM) of the same test system?
A: 0.934 ± 0.069

Q: What about the surviving fraction ([5]; 50 nM) of the same test system?
A: 0.632 ± 0.049

Q: What about the surviving fraction ([5]; 100 nM) of the same test system?
A: 0.515 ± 0.044

Q: What about the surviving fraction ([5]; 500 nM) of the same test system?
A: 0.135 ± 0.023

Q: What about the surviving fraction ([5]; 1000 nM) of the same test system?
A: 0.068 ± 0.007

Q: What about the surviving fraction ([6]; 0.5 nM) of the same test system?
A: 1.03 ± 0.13

Q: And the surviving fraction ([6]; 1 nM)?
A: 0.976 ± 0.048

Q: What about the surviving fraction ([6]; 5 nM) of the same test system?
A: 1.15 ± 0.14

Q: What about the surviving fraction ([6]; 10 nM) of the same test system?
A: 1.02 ± 0.075

Q: And the surviving fraction ([6]; 50 nM)?
A: 1.03 ± 0.042

Q: And the surviving fraction ([6]; 100 nM)?
A: 1.01 ± 0.088

Q: And the surviving fraction ([6]; 500 nM)?
A: 0.815 ± 0.048

Q: What about the surviving fraction ([6]; 1000 nM) of the same test system?
A: 0.848 ± 0.068

Q: And the surviving fraction ([7]; 0.5 nM)?
A: 0.861 ± 0.13

Q: And the surviving fraction ([7]; 1 nM)?
A: 1.02 ± 0.099

Q: What about the surviving fraction ([7]; 5 nM) of the same test system?
A: 1.04 ± 0.081

Q: And the surviving fraction ([7]; 10 nM)?
A: 1.02 ± 0.055

Q: What about the surviving fraction ([7]; 50 nM) of the same test system?
A: 1.04 ± 0.018

Q: And the surviving fraction ([7]; 100 nM)?
A: 1.08 ± 0.017

Q: What about the surviving fraction ([7]; 500 nM) of the same test system?
A: 1 ± 0.053

Q: And the surviving fraction ([7]; 1000 nM)?
A: 0.924 ± 0.11

Q: What about the surviving fraction ([8]; 0.5 nM) of the same test system?
A: 1.07 ± 0.049

Q: What about the surviving fraction ([8]; 1 nM) of the same test system?
A: 1.045 ± 0.0081

Q: What about the surviving fraction ([8]; 5 nM) of the same test system?
A: 1.08 ± 0.067

Q: What about the surviving fraction ([8]; 10 nM) of the same test system?
A: 1.13 ± 0.091

Q: What about the surviving fraction ([8]; 50 nM) of the same test system?
A: 1.06 ± 0.044

Q: What about the surviving fraction ([8]; 100 nM) of the same test system?
A: 1.04 ± 0.099

Q: What about the surviving fraction ([8]; 500 nM) of the same test system?
A: 1.2 ± 0.14

Q: And the surviving fraction ([8]; 1000 nM)?
A: 1.18 ± 0.038

Q: What about the surviving fraction ([9]; 0.5 nM) of the same test system?
A: 1.04 ± 0.049

Q: What about the surviving fraction ([9]; 1 nM) of the same test system?
A: 1.07 ± 0.078

Q: What about the surviving fraction ([9]; 5 nM) of the same test system?
A: 1.13 ± 0.14

Q: And the surviving fraction ([9]; 10 nM)?
A: 1.13 ± 0.05

Q: And the surviving fraction ([9]; 50 nM)?
A: 1.19 ± 0.064

Q: What about the surviving fraction ([9]; 100 nM) of the same test system?
A: 0.999 ± 0.049

Q: What about the surviving fraction ([9]; 500 nM) of the same test system?
A: 1.06 ± 0.082

Q: And the surviving fraction ([9]; 1000 nM)?
A: 1.02 ± 0.054

Q: What about the “area under dose-response curve” value [10] of the same test system?
A: 2.46

Q: And the “area under dose-response curve” value [11]?
A: 0.799

Q: And the “area under dose-response curve” value [12]?
A: 3.53

Q: And the “area under dose-response curve” value [13]?
A: 1.9

Q: And the “area under dose-response curve” value [14]?
A: 2.27

Q: And the “area under dose-response curve” value [15]?
A: 3.29

Q: And the “area under dose-response curve” value [16]?
A: 3.62

Q: What about the “area under dose-response curve” value [17] of the same test system?
A: 3.56
